Measured values published in patent US12201633B2, “Compounds and methods for treatment of visceral pain” (Arena Pharmaceuticals, Inc., priority 2017, dated 2025).

Assays:
[1] = system: acute and chronic pain from chemical, mechanical, and thermal pain stimuli; conditions: animal studies; cited from earlier work
[2] = system: rats following ligation of spinal nerves; conditions: cited from earlier work
human CB2 receptor [3] = target: T1, human CB2 receptor (Homo sapiens, UniProt P34972); test: PathHunter β-arrestin assay, CB2
T1 sequence (P34972 whole entry): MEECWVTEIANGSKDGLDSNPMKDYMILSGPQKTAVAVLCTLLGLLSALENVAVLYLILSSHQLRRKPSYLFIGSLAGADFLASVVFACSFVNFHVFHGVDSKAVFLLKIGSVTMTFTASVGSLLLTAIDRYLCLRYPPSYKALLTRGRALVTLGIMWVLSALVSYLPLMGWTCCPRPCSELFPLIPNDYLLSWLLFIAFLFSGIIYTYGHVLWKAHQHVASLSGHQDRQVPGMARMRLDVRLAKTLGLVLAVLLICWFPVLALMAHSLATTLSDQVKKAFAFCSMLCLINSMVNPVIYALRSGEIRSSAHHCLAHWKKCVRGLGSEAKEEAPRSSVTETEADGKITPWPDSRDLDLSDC

hCB1 [4] = target: T2, hCB1 (Homo sapiens, UniProt P21554); test: HTRF assay for direct cAMP measurement, CB1; format: cell-based; parameters: 93-0164 (CHO-K1 EA-Arrestin parental line); host or cells: CHO-K1 EA-Arrestin, clone #3
T2 sequence (P21554 whole entry): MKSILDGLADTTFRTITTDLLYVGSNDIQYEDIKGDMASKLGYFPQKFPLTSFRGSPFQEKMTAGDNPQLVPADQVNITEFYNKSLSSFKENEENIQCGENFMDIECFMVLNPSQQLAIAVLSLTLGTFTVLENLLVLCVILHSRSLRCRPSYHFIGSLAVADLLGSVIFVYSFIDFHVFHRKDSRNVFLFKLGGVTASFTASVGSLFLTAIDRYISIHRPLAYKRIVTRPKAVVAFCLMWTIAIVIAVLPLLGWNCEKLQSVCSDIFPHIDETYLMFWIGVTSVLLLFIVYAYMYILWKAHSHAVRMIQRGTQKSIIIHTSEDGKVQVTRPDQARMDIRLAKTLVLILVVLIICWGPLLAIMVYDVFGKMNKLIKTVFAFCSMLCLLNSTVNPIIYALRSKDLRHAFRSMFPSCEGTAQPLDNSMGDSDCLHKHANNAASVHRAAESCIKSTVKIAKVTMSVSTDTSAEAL
Text: Compounds were also screened for agonists and inverse agonists of the CB1 receptor (e.g., human CB1 receptor) using HTRF® assay for direct cAMP measurement (Gabriel et al., ASSAY and Drug Development Technologies, 1:291-303, 2003) in recombinant CHO-K1 cells stably transfected with the CB1 receptor. […] An agonist of the CB1 receptor was detected in the HTRF® assay for direct cAMP measurement as a compound which decreased cAMP concentration. An inverse agonist of the CB1 receptor was detected in the HTRF® assay for direct cAMP measurement as a compound which increased cAMP concentration. The HTRF® assay also was used to determine EC50 values for CB1 receptor agonists and inverse agonists.
Principle of the assay: The HTRF® assay kit was purchased from Cisbio-US, Inc. (Bedford, MA; Catalog #62AM4PEC). The HTRF® assay supported by the kit is a competitive immunoassay between endogenous cAMP produced by the CHO-K1 cells and tracer cAMP labeled with the dye d2. The tracer binding is visualized by a monoclonal anti-cAMP antibody labeled with Cryptate. The specific signal (i.e., fluorescence resonance energy transfer, FRET) is inversely proportional to the concentration of unlabeled cAMP in the standard or sample.
The fluorescence ratio of the samples (test compound or compound buffer) was calculated and used to deduce respective cAMP concentrations by reference to the cAMP standard curve. […]

human CB2 receptor [5] = target: T1, human CB2 receptor; test: HTRF assay for direct cAMP measurement, CB2; format: cell-based; parameters: 93-0164 (CHO-K1 EA-Arrestin parental line); host or cells: CHO-K1 EA-Arrestin, clone #61
[6] = system: male Sprague-Dawley rats, STZ-induced PDPN; test: Streptozotocin-induced painful diabetic peripheral neuropathy (PDPN) model; format: in vivo, rat; conditions: 10 mg/kg orally in 0.5% methylcellulose; 1, 4 and 6 hours post-dosing; FIG. 9, FIG. 10
Procedure: Male Sprague-Dawley rats were injected intraperitoneally with 50 mg/kg of streptozotocin (STZ) in sodium citrate buffer. 10% sucrose water was provided ad libitum for the first 48 hours post-STZ followed by regular drinking water. Rats were monitored once weekly for blood glucose levels and body weights. Development of tactile allodynia over time was analyzed using Von Frey filaments and a 50% withdrawal threshold was determined using Dixon's up-down procedure. […] Tactile allodynia was evaluated at 1, 4 and 6 hours post-dosing.

hCB1 [7] = target: T2, hCB1; test: PathHunter β-arrestin assay, CB1
hCB1 [8] = target: T2, hCB1; test: Radioligand binding assay, hCB1; conditions: Table C

Row | Compound | Efficacy against acute and chronic pain [1] | EC50 (human CB2 receptor [3]) | EC50 (human CB2 receptor [5]) | other results
1 | Cc1c(C(=O)c2cccc3ccccc23)c2cccc3c2n1[C@H](CN1CCOCC1)CO3 [WIN 55212-2] | effective against acute and chronic pain | – | – | –
2 | CCCCCc1cc(O)c2c(c1)OC(C)(C)[C@@H]1CCC(C)=C[C@@H]21 [THC] | effective against acute and chronic pain | – | – | –
3 | COc1ccc2c(c1)c(CCN1CCOCC1)c(C)n2C(=O)c1cccc(Cl)c1Cl [GW405833] | – | – | – | Hypersensitivity to mechanical stimuli ([2]; administered systemically): significantly reverses hypersensitivity to mechanical stimuli
4 | CC(C)(CO)NC(=O)c1nn(-c2ccc(Cl)cn2)c2c1C[C@H]1C[C@@H]21 [Compound 151, (1aR,5aR)-2-(5-Chloro-pyridin-2-yl)-1a,2,5,5a-tetrahydro-1H-2,3-diaza-cyclopropa[a]pentalene-4-carboxylic acid (2-hydroxy-1,1-dimethyl-ethyl)-amide] | – | 92.1 nM | 3.83 nM | EC50 (hCB1 [4]): 72500 nM
5 | CCCCCCC(C)(C)c1ccc([C@@H]2C[C@H](O)CC[C@H]2CCCO)c(O)c1 [CP55,940] | effective against acute and chronic pain | – | – | –
6 | CCCCC/C=C\C/C=C\C/C=C\C/C=C\CCCC(=O)NCCO [anandamide] | effective against acute and chronic pain | – | – | –
7 | CC(C)(NC(=O)c1nn(-c2c[n+]([O-])ccn2)c2c1C[C@@H]1C[C@H]21)C(F)(F)F [Compound 919, (1aS,5aS)-2-(4-Oxy-pyrazin-2-yl)-1a,2,5,5a-tetrahydro-1H-2,3-diaza-cyclopropa[a]pentalene-4-carboxylic acid (2,2,2-trifluoro-1,1-dimethyl-ethyl)-amide] | – | 2.35 nM | 0.2 nM | Analgesic efficacy (tactile allodynia, 50% withdrawal threshold) [6]: robust and sustained analgesic efficacy over 6 hours
8 | CNC(=O)[C@@H](NC(=O)c1nn(-c2c[n+]([O-])ccn2)c2c1C[C@H]1C[C@@H]21)C(C)(C)C [Compound 704, (1aR,5aR)-2-(4-Oxy-pyrazin-2-yl)-1a,2,5,5a-tetrahydro-1H-2,3-diaza-cyclopropa[a]pentalene-4-carboxylic acid ((S)-2,2-dimethyl-1-methylcarbamoyl-propyl)-amide] | – | 0.8 nM | 0.2 nM | EC50 (hCB1 [7]): 228 nM
9 | CNC(=O)[C@@H](NC(=O)c1nn(-c2cnccn2)c2c1C[C@H]1C[C@@H]21)C(C)(C)C [Compound 667, (1aR,5aR)-2-Pyrazin-2-yl-1a,2,5,5a-tetrahydro-1H-2,3-diaza-cyclopropa[a]pentalene-4-carboxylic acid [2,2-dimethyl-1-((S)-methylcarbamoyl)-propyl]-amide] | – | 1.53 nM | 0.3 nM | EC50 (hCB1 [7]): 145 nM; EC50 (hCB1 [4]): 195 nM
10 | COc1ccc(C(=O)c2c(C)n(CCN3CCOCC3)c3cc(I)ccc23)cc1 [AM630] | – | – | – | Effect on the reversal of hypersensitivity by AM1241 [2]: inhibited
11 | CNC(=O)[C@@H](NC(=O)c1nn(-c2c[n+]([O-])ccn2)c2c1C[C@@H]1C[C@H]21)C(C)(C)C [Compound 701, (1aS,5aS)-2-(4-Oxy-pyrazin-2-yl)-1a,2,5,5a-tetrahydro-1H-2,3-diaza-cyclopropa[a]pentalene-4-carboxylic acid ((S)-2,2-dimethyl-1-methylcarbamoyl-propyl)-amide] | – | – | – | Ki (hCB1 [8]): 105 nM
